The test system of assay [1] is ZIKV replicon in Vero cells. Description: ZIKV Replication Inhibition Assay (replicon, NanoLuc). The note with it: Zika virus, Vero, 72 h, read-out: Zika Replicon EC50. (A replicon is a self-replicating genome or part of one, used to study replication in cells.)
In assay [2] the target is West Nile Virus (WNV) NS2B-NS3 protease (West Nile virus (WNV), UniProt P06935). Description: WNV Protease Inhibition Assay. In kind it is biochemical. From the text: WNV Protease Inhibition Assay
Setting [3] is: 2 nM protease, 10 μM pERTKR-AMC substrate, read-out: WNV Protease IC50.

Structures can show the parent of a compound that is named as a salt. Where two headings read alike, the source gives them in different places.

Sequence of West Nile Virus (WNV) NS2B-NS3 protease (P06935 1502-1679 limits assumed): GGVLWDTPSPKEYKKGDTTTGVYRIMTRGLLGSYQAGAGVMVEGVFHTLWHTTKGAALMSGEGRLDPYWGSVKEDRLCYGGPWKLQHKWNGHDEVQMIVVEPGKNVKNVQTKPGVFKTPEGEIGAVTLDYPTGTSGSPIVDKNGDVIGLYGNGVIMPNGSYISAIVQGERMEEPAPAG
Sequence of West Nile Virus (WNV) NS2B-NS3 protease (P06935 1371-1501 partner limits assumed): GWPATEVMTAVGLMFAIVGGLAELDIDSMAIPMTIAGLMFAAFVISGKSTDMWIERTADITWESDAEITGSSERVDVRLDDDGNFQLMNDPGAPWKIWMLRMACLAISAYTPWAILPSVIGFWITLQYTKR

Regarding `C[C@H](c1ccc(-c2cncnc2)cc1)[n+]1cc([N-]C(=O)Nc2cccc(C(F)(F)F)c2)on1` [Example 72, (R)-(3-(1-(4-(pyrimidin-5-yl)phenyl)ethyl)-1,2,3-oxadiazol-3-ium-5-yl)((3-(trifluoromethyl)phenyl)carbamoyl)amide], the EC50 in assay [1] lay within 100 to 1000 nM. Also, the IC50 in assay [2] was 100 to 1000 nM.

Consider `O=C([N-]c1c[n+](Cc2ccc(I)cc2)no1)Nc1cccc(C(F)(F)F)c1` [Example 47, (3-(4-iodobenzyl)-1,2,3-oxadiazol-3-ium-5-yl)((3-(trifluoromethyl)phenyl)carbamoyl)amide], for which the EC50 in assay [1] was in the range of 100 to 1000 nM. Also, the IC50 in assay [2] was in the range of 100 to 1000 nM.

In the case of `Cc1ncnc(C)c1-c1cnc(C[n+]2cc([N-]C(=O)Nc3cccc(C(F)(F)F)c3)on2)nc1` [Example 183, (3-((4′,6′-dimethyl-[5,5′-bipyrimidin]-2-yl)methyl)-1,2,3-oxadiazol-3-ium-5-yl)((3-(trifluoromethyl)phenyl)carbamoyl)amide], the EC50 in assay [1] is below 100 nM. For the same compound, in assay [2], the IC50 was 100 to 1000 nM.

Consider `Cc1noc(C)c1-c1ccc(C[n+]2cc([N-]C(=O)Nc3ncc(C(F)(F)F)s3)on2)nc1` [Example 166, (3-((5-(3,5-dimethylisoxazol-4-yl)pyridin-2-yl)methyl)-1,2,3-oxadiazol-3-ium-5-yl)((5-(trifluoromethyl)thiazol-2-yl)carbamoyl)amide], for which the concentration giving a half-maximal response (EC50) in assay [1] was below 100 nM. In addition, the IC50 in assay [2] is 100 to 1000 nM.

Turning to `O=C([N-]c1c[n+](Cc2ccc(-c3ccnnc3)cn2)no1)Nc1cncc(C(F)(F)F)c1` [Example 145, (3-((5-(pyridazin-4-yl)pyridin-2-yl)methyl)-1,2,3-oxadiazol-3-ium-5-yl)((5-(trifluoromethyl)pyridin-3-yl)carbamoyl)amide], the EC50 in assay [1] fell in the range of 1000 to 20000 nM. The same compound registered an IC50 in assay [2] of 100 to 1000 nM.

Regarding `Cc1noc(C)c1-c1cnc(C[n+]2cc([N-]C(=O)Nc3cccc(C(F)(F)F)c3)on2)nc1` [Example 167, (3-((5-(3,5-dimethylisoxazol-4-yl)pyrimidin-2-yl)methyl)-1,2,3-oxadiazol-3-ium-5-yl)((3-(trifluoromethyl)phenyl)carbamoyl)amide], in assay [1], the EC50 is below 100 nM. For the same compound, in assay [2], the half-inhibitory concentration (IC50) fell in the range of 100 to 1000 nM.

For the compound `Cc1ccncc1-c1ccc(C[n+]2cc([N-]C(=O)Nc3cccc(C(F)(F)F)c3)on2)nc1` [Example 139, (3-((4′-methyl-[3,3′-bipyridin]-6-yl)methyl)-1,2,3-oxadiazol-3-ium-5-yl)((3-(trifluoromethyl)phenyl)carbamoyl)amide], the EC50 in assay [1] is below 100 nM. For the same compound, in assay [2] (setting [3]), the IC50 was below 100 nM.

As to `O=C([N-]c1c[n+](Cc2ccc(-c3cncnc3C3CC3)cn2)no1)Nc1cccc(C(F)(F)F)c1` [Example 155, (3-((5-(4-cyclopropylpyrimidin-5-yl)pyridin-2-yl)methyl)-1,2,3-oxadiazol-3-ium-5-yl)((3-(trifluoromethyl)phenyl)carbamoyl)amide], the EC50 in assay [1] lay in the range of 100 to 1000 nM. The compound further displayed an IC50 in assay [2] of 100 to 1000 nM.

For the compound `Cc1noc(C)c1-c1ccc(C[n+]2cc([N-]C(=O)Nc3cccc(C(F)F)c3)on2)nc1` [Example 168, ((3-(difluoromethyl)phenyl)carbamoyl)(3-((5-(3,5-dimethylisoxazol-4-yl)pyridin-2-yl)methyl)-1,2,3-oxadiazol-3-ium-5-yl)amide], the EC50 in assay [1] was in the range of 100 to 1000 nM. Further, in assay [2], the IC50 lay in the range of 100 to 1000 nM.

`Cc1ccc(NC(=O)[N-]c2c[n+](Cc3ccc(-c4c(C)noc4C)cn3)no2)cc1C(F)(F)F` [Example 158, (3-((5-(3,5-dimethylisoxazol-4-yl)pyridin-2-yl)methyl)-1,2,3-oxadiazol-3-ium-5-yl)((4-methyl-3-(trifluoromethyl)phenyl)carbamoyl)amide]: the EC50 in assay [1] is below 100 nM. In addition, the IC50 in assay [2] fell in the range of 100 to 1000 nM.

As for `O=C([N-]c1c[n+](Cc2ccc(-c3cccnc3Cl)cn2)no1)Nc1cccc(C(F)(F)F)c1` [Example 172, (3-((2′-chloro-[3,3′-bipyridin]-6-yl)methyl)-1,2,3-oxadiazol-3-ium-5-yl)((3-(trifluoromethyl)phenyl)carbamoyl)amide], the EC50 in assay [1] was below 100 nM. The IC50 in assay [2] lay in the range of 100 to 1000 nM.

`Cc1cnn(C)c1-c1ccc(C[n+]2cc([N-]C(=O)Nc3cccc(C(F)(F)F)c3)on2)nc1` [Example 165, (3-((5-(1,4-dimethyl-1H-pyrazol-5-yl)pyridin-2-yl)methyl)-1,2,3-oxadiazol-3-ium-5-yl)((3-(trifluoromethyl)phenyl)carbamoyl)amide]: the EC50 in assay [1] was below 100 nM. The compound further returned an IC50 in assay [2] of 100 to 1000 nM.

For the compound `COc1ncc(-c2cccc(C[n+]3cc([N-]C(=O)Nc4cccc(C(F)(F)F)c4)on3)c2)cn1` [Example 53, (3-(3-(2-methoxypyrimidin-5-yl)benzyl)-1,2,3-oxadiazol-3-ium-5-yl)((3-(trifluoromethyl)phenyl)carbamoyl)amide], the EC50 in assay [1] was in the range of 100 to 1000 nM. For the same compound, the IC50 in assay [2] was 100 to 1000 nM.

As for `C[C@H](c1ccc(Br)cc1)[n+]1cc([N-]C(=O)Nc2cccc(C(F)(F)F)c2)on1` [Example 68, (R)-(3-(1-(4-bromophenyl)ethyl)-1,2,3-oxadiazol-3-ium-5-yl)((3-(trifluoromethyl)phenyl)carbamoyl)amide], the EC50 in assay [1] was 1000 to 20000 nM. Further, the IC50 in assay [2] was in the range of 1000 to 20000 nM.

Take `Cc1cnncc1-c1ccc(C[n+]2cc([N-]C(=O)Nc3cccc(C(F)(F)F)c3)on2)nc1` [Example 129, (3-((5-(5-methylpyridazin-4-yl)pyridin-2-yl)methyl)-1,2,3-oxadiazol-3-ium-5-yl)((3-(trifluoromethyl)phenyl)carbamoyl)amide]: in assay [1], the EC50 was in the range of 100 to 1000 nM. Moreover, in assay [2] (setting [3]), the IC50 is below 100 nM.

Take `Cc1noc(C)c1-c1ccc(C[n+]2cc([N-]C(=O)Nc3ccnc(C(F)(F)F)c3)on2)nc1` [Example 152, (3-((5-(3,5-dimethylisoxazol-4-yl)pyridin-2-yl)methyl)-1,2,3-oxadiazol-3-ium-5-yl)((2-(trifluoromethyl)pyridin-4-yl)carbamoyl)amide]: in assay [1], the EC50 was below 100 nM. The IC50 in assay [2] (setting [3]) is below 100 nM.

As to `O=C([N-]c1c[n+](Cc2ccc(Br)cc2)no1)Nc1cccc(C(F)(F)F)c1` [Example 19, (3-(4-bromobenzyl)-1,2,3-oxadiazol-3-ium-5-yl)((3-(trifluoromethyl)phenyl)carbamoyl)amide], in assay [1], the EC50 was 100 to 1000 nM. For the same compound, the IC50 in assay [2] (setting [3]) is below 100 nM.

Regarding `C[C@@H](c1ccc(-c2cncnc2)cc1)[n+]1cc([N-]C(=O)Nc2cccc(C(F)(F)F)c2)on1` [Example 74, (S)-(3-(1-(4-(pyrimidin-5-yl)phenyl)ethyl)-1,2,3-oxadiazol-3-ium-5-yl)((3-(trifluoromethyl)phenyl)carbamoyl)amide], the EC50 in assay [1] was 100 to 1000 nM. Moreover, the IC50 in assay [2] (setting [3]) was below 100 nM.

As to `C[C@H](c1ccc(Br)cc1)[n+]1cc([N-]C(=O)Nc2cncc(C(F)(F)F)c2)on1` [Example 73, (R)-(3-(1-(4-bromophenyl)ethyl)-1,2,3-oxadiazol-3-ium-5-yl)((5-(trifluoromethyl)pyridin-3-yl)carbamoyl)amide], in assay [1], the EC50 lay within 1000 to 20000 nM. The compound further gave an IC50 in assay [2] of 1000 to 20000 nM.

`O=C([N-]c1c[n+]([C@@H](CO)Cc2ccccc2)no1)Nc1cccc(C(F)(F)F)c1` [Example 45]: the IC50 in assay [2] (read-out: WNV Protease IC50, 2 nM protease, 10 μM pERTKR-AMC substrate) was 1000 to 20000 nM.

As for `O=C([N-]c1c[n+]([C@H](CF)Cc2ccccc2)no1)Nc1cccc(C(F)(F)F)c1` [Example 37, (S)-(3-(1-fluoro-3-phenylpropan-2-yl)-1,2,3-oxadiazol-3-ium-5-yl)((3-(trifluoromethyl)phenyl)carbamoyl)amide], the EC50 in assay [1] was above 20000 nM.

Regarding `C[C@@H](c1ccc(Br)cc1)[n+]1cc([N-]C(=O)Nc2cncc(C(F)(F)F)c2)on1` [Example 76, (S)-(3-(1-(4-bromophenyl)ethyl)-1,2,3-oxadiazol-3-ium-5-yl)((5-(trifluoromethyl)pyridin-3-yl)carbamoyl)amide], the EC50 in assay [1] was in the range of 100 to 1000 nM.

For `O=C([N-]c1c[n+](Cc2ccc3ccccc3c2)no1)Nc1cccc(C(F)(F)F)c1` [Example 18, (3-(naphthalen-2-ylmethyl)-1,2,3-oxadiazol-3-ium-5-yl)((3-(trifluoromethyl)phenyl)carbamoyl)amide], in assay [1], the EC50 lay within 1000 to 20000 nM.

On to `Cc1ncnc(OCCN(C)C)c1-c1ccc(C[n+]2cc([N-]C(=O)Nc3cccc(C(F)(F)F)c3)on2)nc1` [Example 123, ((3-((5-(4-(2-(metheyliumyl(methyl)ammonio)ethoxy)-6-methylpyrimidin-5-yl)pyridin-2-yl)methyl)-1,2,3-oxadiazol-3-ium-5-yl)((3-(trifluoromethyl)phenyl)carbamoyl)amide) (2,2,2-trifluoroacetate)], for which the EC50 in assay [1] was 100 to 1000 nM.

As to `NC[C@@H](c1ccc(-c2cncnc2)cc1)[n+]1cc([N-]C(=O)Nc2cccc(C(F)(F)F)c2)on1` [Example 102, (R)-(3-(2-amino-1-(4-(pyrimidin-5-yl)phenyl)ethyl)-1,2,3-oxadiazol-3-ium-5-yl)((3-(trifluoromethyl)phenyl)carbamoyl)amide formate], the EC50 in assay [1] was 100 to 1000 nM.

Regarding `N#Cc1ncncc1-c1ccc(C[n+]2cc([N-]C(=O)Nc3cccc(C(F)(F)F)c3)on2)cc1` [Example 106, (3-(4-(4-cyanopyrimidin-5-yl)benzyl)-1,2,3-oxadiazol-3-ium-5-yl)((3-(trifluoromethyl)phenyl)carbamoyl)amide], the EC50 in assay [1] lay in the range of 100 to 1000 nM.

`CC(Cc1ccccc1)[n+]1cc([N-]C(=O)Nc2cccc(C(F)(F)F)c2)on1` (centres unmarked) [Example 1, (3-(1-Phenylpropan-2-yl)-1,2,3-oxadiazol-3-ium-5-yl)((3-(trifluoromethyl)phenyl)carbamoyl)amide]: in assay [1], the EC50 lay in the range of 1000 to 20000 nM.

On to `COc1cc(NC(=O)[N-]c2c[n+](C(C)Cc3ccccc3)no2)cc(C(F)(F)F)c1` (centres unmarked) [Example 34, ((3-methoxy-5-(trifluoromethyl)phenyl)carbamoyl)(3-(1-phenylpropan-2-yl)-1,2,3-oxadiazol-3-ium-5-yl)amide], for which the EC50 in assay [1] was above 20000 nM.

As a reminder, the EC50 is the midpoint of the concentration-response curve. In general, IC50 refers to the concentration that inhibits the measured activity by half.

Source of the values: patent US20250353853A1, “FLAVIVIRUS INHIBITORS” (IRBM S.P.A., priority 2022, published 2025).
